Assay results reported in EP0314239A2, “Tripeptide renin inhibitors with N-terminal ureido or sulfamido groups” (Merck & Co., Inc., priority 1987, dated 1989).

target: T1, renin (Homo sapiens, UniProt P00797); experiment: Renin inhibition IC50, by the methods of J. Med. Chem., 1985, 28, 1789-1790; type: biochemical
T1 sequence (P00797 67-406): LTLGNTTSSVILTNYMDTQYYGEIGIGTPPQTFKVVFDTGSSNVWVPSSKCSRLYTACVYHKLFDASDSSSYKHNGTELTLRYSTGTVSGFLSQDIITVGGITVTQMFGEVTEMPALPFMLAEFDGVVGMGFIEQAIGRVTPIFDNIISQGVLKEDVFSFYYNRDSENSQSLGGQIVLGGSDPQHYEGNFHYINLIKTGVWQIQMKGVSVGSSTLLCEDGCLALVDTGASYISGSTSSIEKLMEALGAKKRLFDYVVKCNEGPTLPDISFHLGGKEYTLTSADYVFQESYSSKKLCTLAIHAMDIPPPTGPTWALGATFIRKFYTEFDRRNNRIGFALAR
From the text: The following examples are intended to be representative and not limiting. ICso results were obtained according to the methods described in J. Med. Chem., 1985, 28, 1789-1790.

Compared with `CC[C@H](C)CNC(=O)C[C@H](O)[C@H](CC1CCCCC1)NC(=O)[C@H](Cc1c[nH]cn1)NC(=O)[C@H](Cc1ccccc1)NC(=O)N1CCN(C(=O)OC(C)(C)C)CC1` [Example 5, N-(4-Boc-Piperizinyl)Carbonyl-Phenylalanyl-Histidyl-ACHPA-2(S)Methylbutylamide], `CC[C@H](C)CNC(=O)C[C@H](O)[C@H](CC1CCCCC1)NC(=O)[C@H](Cc1c[nH]cn1)NC(=O)[C@H](Cc1ccccc1)NC(=O)N1CCOCC1` [Example 4, N-(Morpholin-4-yl)carbonyl-Phenylalanyl-Histidyl-ACHPA-2(S)-Methylbutylamide] is 2-fold lower in IC50: 10 nM for the first, 5 nM for the second. The second is the more potent here.

`C[N+]12CCC(CC1)C(NC(=O)C[C@H](O)[C@H](CC1CCCCC1)NC(=O)[C@H](Cc1c[nH]cn1)NC(=O)[C@H](Cc1ccccc1)NC(=O)N1CCOCC1)C2` (stereo partly drawn) [Example 7, N-(morpholin-4-yl)carbonyl-L-Phenylalanyl-L-Histidyl(3S,4S)-4-Amino-5-Cyclohexyl-3-Hydroxypentanoyl-1-Methylquinuclidinium-3-yl-Amide Acetate] and `O=C(C[C@H](O)[C@H](CC1CCCCC1)NC(=O)[C@H](Cc1c[nH]cn1)NC(=O)[C@H](Cc1ccccc1)NC(=O)N1CCOCC1)NC1CN2CCC1CC2` (stereo partly drawn) [N-(morpholin-4-yl)carbonyl-L-Phenylalanyl-L-Histidyl-(3S,4S)-4-amino-5-cyclohexyl-3-hydroxy pentanoyl-3-quinuclidinyl amide] are within 1.5-fold of each other in IC50: 29 nM for the first, 30 nM for the second.

Work on `CC[C@H](C)CNC(=O)C[C@H](O)[C@H](CC1CCCCC1)NC(=O)[C@H](Cc1c[nH]cn1)NC(=O)[C@H](Cc1ccccc1)NC(=O)N1CCNCC1` [Example 6, N-(Piperazin-1-yl)carbonyl-Phenylalanyl-Histidyl-ACHPA-2(S)-Methylbutylamide] yielded an IC50 of 43 nM.
